According to patent publication US20210386841A1, “COMPOSITIONS FOR TRANSFECTING mRNA INTO A CELL AND THEIR APPLICATIONS” (POLYPLUS TRANSFECTION, priority 2018, published 2021):

How the values were obtained:
Assay type in all cases: cell-based
[1] = system: Jurkat Clone E6-1 human T lymphoblast cells; assay: eGFP mRNA transfection, Jurkat cells (96-well); details: 150 ng eGFP mRNA, 24 h
Protocol: Jurkat Clone E6-1 (ATCC® TIB-152™) human T lymphoblast cells were grown in RPMI-1640 (LONZA) with 10% of FBS (EUROBIO) and supplemented with 2 mM Glutamine (LONZA), 100 U/mL of penicillin and 100 μg/mL of streptomycin (LONZA) at 37° C. in a 5% CO2 in air atmosphere.
(§1) mRNA eGFP (996 nt, reference L-6101) from TriLink Technologies was used for the in vitro transfection experiments and expressed enhanced green fluorescent protein which is a common reporter gene (eGFP). This mRNA was capped with a Cap 0, polyadenylated and modified with 5-methylcytidine and pseudo-uridine.
(§2) One day before transfection, Caco-2, THP-1 or BJ Cells were seeded at 10 000, 25 000, or 5 000 cells per well (96-well plate format), respectively, in 125 μL of their respective complete medium and incubated at 37° C. in a 5% CO2 in air atmosphere. For Jurkat cells, 25 000 cells were seeded per well prior transfection. On the day of transfection 150 ng of mRNA was added in 11.5 μL of 5% glucose solution, mixed with a vortex and incubated for 5 minutes at rt. Then, 1 μL of 1 mM cationic liposomal formulation was added onto the diluted mRNA, mixed with a vortex and incubated for 15 minutes at rt. The formulated mRNA solution (12.5 μL) was added into the well and the plate was incubated for 24 hours at 37° C. in a 5% CO2 in air atmosphere.
(§3) For the GFP expression analysis, the cell culture medium was removed for the adherent cells and 50 μL of trypsin-EDTA (1×, Lonza) was added and the plate was incubated for 5 minutes at 37° C. 150 μL of complete medium were added to neutralize the trypsin, and the GFP expression was analysed (2000 events) by flow cytometry (Exc 488 nm, Em 520 nm) using a Guava easyCyte 6HT cytometer (Millipore).
(§4) All these new liposomal formulations (Table 1) were assessed to deliver mRNA expressing an enhanced green fluorescent protein (eGFP) as reporter gene in order to determine the gene expression and the transfection efficiency (Table 2). mRNA eGFP capped with a Cap 0 in 5′-end, polyadenylated in 3′-end and modified with 5-methylcytidine and pseudo-uridine was used in the transfection assay. The transfection assay was performed as described in the Experimental section where 150 ng of mRNA eGFP was complexed with 1 μL of 1 mM cationic liposomal formulations in a 5% glucose solution before the addition on the cells. One day post-transfection, the eGFP expression was analyzed by flow cytometry to determine the percentage of transfection. Four different cell lines were used in this assay from easy to transfect cells to hard to transfect cells with plasmid DNA, including human BJ skin fibroblast cells, THP-1 human peripheral blood monocytes, Caco-2 human colon epithelial cells and Jurkat Clone E6-1 human T lymphoblast cells, respectively.

[2] = system: THP-1 human peripheral blood monocyte cells; assay: eGFP mRNA transfection, THP-1 cells (96-well); details: ratio 1/2, 150 ng eGFP mRNA, 24 h
Protocol: THP-1 (ATCC® TIB-202™) human peripheral blood monocyte cells were grown in RPMI-1640 with 10% FBS and supplemented with 10 mM HEPES buffer, 1 mM sodium pyruvate, 0.05 mM 2-mercaptoethanol, 2 mM glutamine, 100 U/mL of penicillin and 100 μg/mL of streptomycin at 37° C. in a 5% CO2 in air atmosphere.
as §1, §2, §3, §4

[3] = system: Caco-2 human colon epithelial cells; assay: eGFP mRNA transfection, Caco-2 cells (96-well); details: for Transfection efficiency (eGFP %) CaCO2: ratio 1/2, 150 ng eGFP mRNA, 24 h
Protocol: Caco-2 (ATCC® HTB-37™) human colon epithelial cells were grown in DMEM 4.5 g/L glucose with 20% FBS supplemented with 1% non-essential amino acids, 1 mM sodium pyruvate, 2 mM glutamine and 100 U/mL of penicillin and 100 μg/mL of streptomycin at 37° C. in a 5% CO2 in air atmosphere.
as §1, §2, §3, §4

[4] = system: BJ human skin fibroblast cells; assay: eGFP mRNA transfection, BJ cells (96-well); details: co-lipid DOPE, ratio 1/2; 150 ng eGFP mRNA; 24 h
Protocol: BJ (ATCC® CRL-2522™) human skin fibroblast cells were grown in Eagle's Minimum Essential Medium with 10% FBS and supplemented with 1% non-essential amino acids, 1 mM sodium pyruvate, 2 mM glutamine and 100 U/mL of penicillin and 100 μg/mL of streptomycin at 37° C. in a 5% CO2 in air atmosphere.
as §1, §2, §3, §4

[5] = co-lipid DOPE, ratio compound/co-lipid 1/2, 1 μL of 1 mM formulation, flow cytometry

| SMILES | Transfection efficiency (eGFP %) Jurkat [1, 5] | Transfection efficiency (eGFP %) THP-1 ([2]; co-lipid DOPE) | Transfection efficiency (eGFP %) CaCO2 ([3]; co-lipid DOPE) | Transfection efficiency (eGFP %) CaCO2 ([3]; co-lipid DPyPE) | Transfection efficiency (eGFP %) Jurkat ([1]; co-lipid DPyPE, ratio 1/2) | Transfection efficiency (eGFP %) THP-1 ([2]; co-lipid DPyPE) | Transfection efficiency (eGFP %) BJ [4] | GFP expression one day post-transfection, comparison of co-lipids ([3]; CaCo2 cells, co-lipid DPyPE versus DOPE, PaLiPE, DiLiPE, molar ratio 1:2 (FIG. 3)) | Transfection efficiency (eGFP %) Jurkat ([1]; co-lipid DPyPE, ratio 1/1.5) |
| --- | --- | --- | --- | --- | --- | --- | --- | --- | --- |
| CCCCCCCCCCCCCCCCCCC(CCCCCCCCCCCCCCCCCC)CCCCC(Cc1ccccc1)[n+]1ccn(C)c1.[Cl-] (centres unmarked) [Compound W15.7, 1-methyl-3-(7-octadecyl-1-phenylpentacosan-2-yl)-1H-imidazol-3-ium chloride] | 25-30% | 55-70% | – | – | – | – | – | – | – |
| CCCCCCCCCCCCCCCCCCC(CCCCCCCCCCCCCCCCCC)CCCCC(CCC(C)CCCC(C)C)[n+]1ccn(CCCC)c1.[Cl-] (centres unmarked) [Compound W21.7, 1-butyl-3-(2,6-dimethyl-14-octadecyldotriacontan-9-yl)-1H-imidazol-3-ium chloride] | 40-50% | 70-80% | 50-60% | 60-70% | 55-65% | 70-80% | – | – | – |
| CCCCCCCCCCCCCCC(CCCCCCCCCCCCCC)CCCCC(CCC(C)CCCC(C)C)[n+]1ccn(CCCC)c1.[Cl-] (centres unmarked) [Compound W22.7, 1-butyl-3-(2,6-dimethyl-14-tetradecyloctacosan-9-yl)-1H-imidazol-3-ium chloride] | 50-60% | 70-80% | – | – | 40-55% | 80-85% | – | – | – |
| CCCCCCCC/C=C\CCCCCCCCC(CCCCCCCC/C=C\CCCCCCCC)[n+]1ccn(C)c1.[Cl-] [Compound W1.4, 1-methyl-3-(heptatriaconta-9,28-dien-19-yl)-1-methyl-1H-imidazol-3-ium chloride] | 10-15% | 80-85% | 15-25% | – | – | – | 80-95% | – | – |
| CCCCCCCCCCCCCCCCCCNC(CCCCCCCCCC)CCCC(CCCCCCCCCC)n1cc[n+](C)c1.Cl.[Cl-] (centres unmarked) [Compound W19.7, 1-methyl-3-(15-(octadecylammonio)pentacosan-11-yl)-1H-imidazol-3-ium chloride] | 40-50% | 40-50% | – | – | – | – | – | – | – |
| CCCCCCC/C=C\CCCCCCCCC(CCCCCCCCCCCCCC)[n+]1ccn(C)c1 (centres unmarked) [Compound W2.5] | 1-5% | 70-75% | 5-10% | – | – | – | 70-85% | – | – |
| CCCCCCCCCCCCCCCCCCC(CCCCCCCCCCCCCCCCCC)CCCCC(CCCCCC)[n+]1ccn(C)c1.[Cl-] (centres unmarked) [Compound W17.7, 1-methyl-3-(12-octadecyltriacontan-7-yl)-1H-imidazol-3-ium chloride] | 30-35% | 70-75% | – | – | – | – | – | – | – |
| CCCCCCCCCCCCCCC(CCCCCCCCCCCCCC)CCCCC(CCCCC(CCCCCCCCCCCCCC)CCCCCCCCCCCCCC)[n+]1ccn(C)c1.[Cl-] [Compound W18.9, 1-methyl-3-(15,25-ditetradecylnonatriacontan-20-yl)-1H-imidazol-3-ium chloride] | 25-30% | 80-85% | – | – | – | – | – | – | – |
| CCCCCCCCCCCCCCC(CCCCCCCCCCCCCC)CCCCC(CCCCCCCCCCCCCC)[n+]1ccn(C)c1.[Cl-] (centres unmarked) [Compound W9.7, 1-methyl-3-(20-tetradecyltetratriacontan-15-yl)-1H-imidazol-3-ium chloride] | 10-15% | 70-80% | 40-50% | – | – | – | 90-95% | optimal | – |
| CCCCCCCCCCCCCCCCCCC(CCCCCCCCCCCCCCCCCC)n1cc[n+](C)c1.[Cl-] [MONI, 1-Methyl-3-(1-Octadecyl-Nonadecyl)-3H-Imidazol-1-ium chloride, reference compound] | 5-10% | 30-40% | 5-10% | – | – | – | 50-60% | – | – |
| CCCCCCCC/C=C\CCCCCCCCC(CCCCC(CCCCCCCCCCCCCC)CCCCCCCCCCCCCC)[n+]1ccn(CCCC)c1.[Cl-] (centres unmarked) [Compound W20.7, 1-butyl-3-(24-tetradecyloctatriacont-9-en-19-yl)-1H-imidazol-3-ium chloride] | 60-70% | 80-90% | 80-85% | – | 50-60% | 65-80% | 90-95% | – | – |
| CCCCCCCCCCCCCCCCCCC(CCCCCCCCCCCCCCCCCC)CCCCC(CC1CCCCC1)[n+]1ccn(C)c1.[Cl-] (centres unmarked) [Compound W14.7, 1-methyl-3-(1-cyclohexyl-7-octadecylpentacosan-2-yl)-1H-imidazol-3-ium chloride] | 25-35% | 55-65% | – | – | – | – | – | – | – |
| CCCCCCCCCCCCCCCCCCC(CCCCC(CCCCCCCCCCCCCC)CCCCCCCCCCCCCC)[n+]1ccn(C)c1.[Cl-] (centres unmarked) [Compound W11.7, 1-methyl-3-(24-tetradecyloctatriacontan-19-yl)-1H-imidazol-3-ium chloride] | 15-25% | 80-90% | 35-45% | – | – | – | 90-95% | – | – |
| CCCCCCCC/C=C\CCCCCCCCC(CCCCC(CCCCCCCCCCCCCC)CCCCCCCCCCCCCC)[n+]1ccn(C)c1.[Cl-] (centres unmarked) [Compound W10.7, 1-methyl-3-(24-tetradecyloctatriacont-9-en-19-yl)-1H-imidazol-3-ium chloride] | 25-30% | 70-80% | 65-75% | – | – | – | 90-95% | – | – |
| CCCCCCCCCCCCCCCCCCC(CCCCCCCCCC)[n+]1ccn(C)c1.[Cl-] (centres unmarked) [Compound W6.3, 1-methyl-3-(nonacosan-11-yl)-1H-imidazol-3-ium chloride] | 20-25% | 30-40% | 5-10% | – | – | – | 80-85% | – | – |
| CCCCn1cc[n+](C(CCCCC(CCC(C)CCCC(C)C)CCC(C)CCCC(C)C)CCC(C)CCCC(C)C)c1.[Cl-] (centres unmarked) [Compound W23.7, 1-butyl-3-(14-(3,7-dimethyloctyl)-2,6,17,21-tetramethyldocosan-9-yl)-1H-imidazol-3-ium chloride] | – | – | – | – | – | – | – | – | 25-30% |
| CCCCCCC/C=C\CCCCCCCCC(CCCCCCCC/C=C\CCCCCCCC)[n+]1ccn(C)c1.[Cl-] (centres unmarked) [Compound W8.7, 1-methyl-3-(hexatriaconta-8,27-dien-18-yl)-1H-imidazol-3-ium] | 10-15% | 70-80% | – | – | – | – | 80-85% | – | – |
| CCCCCCCCCCCCCCCCCCC(CCCCCCCCCCCCCCCCCC)CCCCC(CCC(C)CCCC(C)C)[n+]1ccn(C)c1.[Cl-] (centres unmarked) [Compound W16.7, 1-methyl-3-(2,6-dimethyl-14-octadecyldotriacontan-9-yl)-1H-imidazole-3-ium chloride] | 35-40% | 75-80% | 15-20% | – | – | – | – | – | – |
